Test system: class I antigen presentation gene expression in MCC cell lines
Experiment: RNA-seq / DESeq2 differential expression of MCC cell lines at baseline and after IFN-γ stimulation
Assay type: cell-based, human
Details: 11 MCC cell lines, baseline vs IFNγ; negative LFC = upregulation in IFNγ-treated
Protocol: FIG. 2A comprises RNA-seq heatmaps of class I antigen presentation gene expression in MCC lines and controls.
FIG. 2B is a volcano plot of differentially expressed genes (genes below FDR cutoff 0.01 are shown in yellow) between baseline and IFN-γ-treated MCC cell lines. Differential expression analysis was performed using DESeq2, and negative LFC indicates increased expression in +IFN-γ samples. IFN genes are highlighted in red.
RNA samples were first assessed for quality using the Agilent Bioanalyzer (DV200 metric). One hundred ng of RNA were used as the input for first strand cDNA synthesis using Superscript III reverse transcriptase and Illumina's TruSeq RNA Access Sample Prep Kit. Synthesis of the second strand of cDNA was followed by indexed adapter ligation with UMI (unique molecular index) adaptors. Subsequent PCR amplification enriched for adapted fragments. Amplified libraries were quantified, normalized, pooled, and hybridized with exome targeting oligos. Following hybridization, bead clean-up, elution and PCR was performed to prepare library pools for sequencing on Illumina flowcell lanes. Transcriptomes were sequenced to a coverage of at least 50 million reads in pairs.
Raw fastq files for fibroblast and keratinocyte control lines were downloaded from SRA using R Bioconductor package SRAdb (Mayakonda et al. (2018) supra; Zhu et al. (2013) BMC Bioinformatics 14 (1): 1-4) using accession codes SRP126422 (4 replicates from control samples ‘NN’) and SRP131347 (6 replicates with condition: control and genotype: control). These fastq files, along with those for the mkl1 and waga cell lines, were aligned using STAR version 2.7.3a (Dobin et al. (2013) Bioinformatics 29 (1): 15-21), using index genome reference file downloaded from ftp.ebi.ac.uk/pub/databases/gencode/Gencode_human/release_19/GRCh37.p13.genome.fa.gz, transcript annotation file downloaded from data.broadinstitute.org/snowman/hg19/star/gencode.v19.annotation.gtf, and with the following options: --twopassMode Basic, --outSAMstrandField intronMotif, --alignIntronMax 1000000, --alignMatesGapMax 1000000, --sjdbScore 2, --outSAMtype BAM Unsorted, --outSAMattributes NH HI NM MD AS XS, --outFilterType BySJout, --outSAMunmapped Within, --genomeLoad NoSharedMemory, --outFilterScoreMinOverLread 0, --outFilterMatchNminOverLread 0, --outFilterMismatchNmax 999, and outFilterMultimapNmax 20. Duplicates were marked with picard MarkDuplicates version 2.22.0-SNAPSHOT.
RNA-sequencing bam files for MCC tumor and cell line samples were downloaded from the Broad Genomics Firecloud/Terra platform using the Google Cloud Storage command line tool gsutil version 4.5 (github.com/GoogleCloudPlatform/gsutil/).
Gene counts were obtained from bam files using featureCounts version 2.0.0 (doi.org/10.1093/bioinformatics/btt656). Very lowly expressed genes with average count across samples less than 1 were excluded from analysis. Between-sample distance metrics were computed using the Euclidean distance on the vectors of variance-stabilized counts obtained from the vst function in the DESeq2 R Bioconductor package ([…]; Love et al. (2014) Genome Biology 15 (12): 550).
Differential expression analysis was carried out between (1) viral positive and viral negative samples (adjusting for cell line or tumor as a covariate), (2) cell line and tumor samples (adjusting for viral status as a covariate), and (3) IFNγ plus and minus samples (adjusting for viral status as a covariate) using the negative binomial GLM Wald test of DESeq2, where significance was assessed using the p-values adjusted for multiple comparisons under default settings. To account for potential global gene expression differences among sample groups, RUVg (Risso et al. (2014) […] 32 (9): 896-902) was used to estimate latent factors of unwanted variation from the list of housekeeping genes downloaded from www.tau.ac.il/˜elieis/HKG/HK_genes.txt. […]

IFN-y: type II interferon, recombinant human, used to treat MCC cells
log2FoldChange FBXO6 (ENSG00000116663.6): −2.854 | log2FoldChange FREM3 (ENSG00000183090.5): −4.873 | log2FoldChange FZD5 (ENSG00000163251.3): −1.098 | log2FoldChange GBP1 (ENSG00000117228.9): −10.1 | log2FoldChange GBP1P1 (ENSG00000225492.2): −7.927 | log2FoldChange GBP2 (ENSG00000162645.8): −6.235 | log2FoldChange GBP3 (ENSG00000117226.7): −9.215 | log2FoldChange GBP4 (ENSG00000162654.8): −10.33 | log2FoldChange GBP5 (ENSG00000154451.10): −5.854 | log2FoldChange HCP5 (ENSG00000206337.6): −5.131 | log2FoldChange HELB (ENSG00000127311.5): −1.463 | log2FoldChange HERC5 (ENSG00000138646.4): −2.156 | log2FoldChange HERC6 (ENSG00000138642.10): −9.027 | log2FoldChange HLA-A (ENSG00000206503.7): −3.702 | log2FoldChange HLA-B (ENSG00000234745.5): −4.921 | log2FoldChange HLA-C (ENSG00000204525.10): −4.155 | log2FoldChange HLA-DMA (ENSG00000204257.10): −3.237 | log2FoldChange HLA-DMB (ENSG00000242574.4): −5.727 | log2FoldChange HLA-DOA (ENSG00000204252.8): −7.789 | log2FoldChange HLA-DOB (ENSG00000241106.2): −3.598 | log2FoldChange HLA-DPA1 (ENSG00000231389.3): −9.303 | log2FoldChange HLA-DPB1 (ENSG00000223865.6): −7.613 | log2FoldChange HLA-DQB1 (ENSG00000179344.12): −7.335 | log2FoldChange HLA-DRA (ENSG00000204287.9): −10.07 | log2FoldChange HLA-DRB1 (ENSG00000196126.6): −7.278 | log2FoldChange HLA-DRB5 (ENSG00000198502.5): −5.98 | log2FoldChange HLA-E (ENSG00000204592.5): −2.608 | log2FoldChange HLA-F (ENSG00000204642.9): −7.289 | log2FoldChange HLA-G (ENSG00000204632.7): −3.367 | log2FoldChange HLA-H (ENSG00000206341.6): −3.883 | log2FoldChange HLA-J (ENSG00000204622.6): −4.551 | log2FoldChange HLA-L (ENSG00000243753.1): −2.336 | log2FoldChange IDO1 (ENSG00000131203.8): −5.825 | log2FoldChange IFI6 (ENSG00000126709.10): −2.328 | log2FoldChange IFI16 (ENSG00000163565.14): −5.946 | log2FoldChange IFI44 (ENSG00000137965.6): −8.954 | log2FoldChange IFI44L (ENSG00000137959.11): −7.733 | log2FoldChange IFIH1 (ENSG00000115267.5): −4.034 | log2FoldChange IFIT1 (ENSG00000185745.8): −3.465 | log2FoldChange IFIT2 (ENSG00000119922.7): −6.152 | log2FoldChange IFIT3 (ENSG00000119917.9): −9.398 | log2FoldChange IFITM1 (ENSG00000185885.11): −8.763 | log2FoldChange IFITM3 (ENSG00000142089.11): −7.436 | log2FoldChange IFNB1 (ENSG00000171855.5): −3.53 | log2FoldChange IL7 (ENSG00000104432.8): −3.753 | log2FoldChange IL15 (ENSG00000164136.12): −6.781 | log2FoldChange IL15RA (ENSG00000134470.15): −6.483 | log2FoldChange IL17RC (ENSG00000163702.14): −1.188 | log2FoldChange IL18BP (ENSG00000137496.13): −1.497 | log2FoldChange INPPI (ENSG00000151689.8): −1.931 | log2FoldChange IRF1 (ENSG00000125347.9): −5.385 | log2FoldChange IRF2 (ENSG00000168310.6): −1.588 | log2FoldChange ISG15 (ENSG00000187608.5): −3.824 | log2FoldChange ITK (ENSG00000113263.8): −4.656 | log2FoldChange KCNIP4 (ENSG00000185774.10): −2.647 | log2FoldChange KDR (ENSG00000128052.8): −7.174 | log2FoldChange KIAA0040 (ENSG00000235750.5): −3.216 | log2FoldChange LAP3 (ENSG00000002549.8): −1.871 | log2FoldChange LGALS12 (ENSG00000133317.10): −4.156 | log2FoldChange LIPT1 (ENSG00000144182.12): −0.5688 | log2FoldChange LOC154761 (ENSG00000253882.2): −3.161 | log2FoldChange LY75 (ENSG00000054219.9): −2.87 | log2FoldChange MAJIN (ENSG00000168070.7): −3.183 | log2FoldChange MOB3C (ENSG00000142961.10): −1.494 | log2FoldChange MOV10 (ENSG00000155363.14): −1.652 | log2FoldChange MTMR9LP (ENSG00000220785.3): −0.5387 | log2FoldChange NOD1 (ENSG00000106100.6): −1.317 | log2FoldChange NRIR (ENSG00000225964.1): −3.724 | log2FoldChange NUB1 (ENSG00000013374.11): −1.521 | log2FoldChange NUGGC (ENSG00000189233.7): −3.265 | log2FoldChange OPTN (ENSG00000123240.12): −1.482 | log2FoldChange PARP3 (ENSG00000041880.10): −1.726 | log2FoldChange PARP9 (ENSG00000138496.12): −5.112 | log2FoldChange PARP10 (ENSG00000178685.9): −3.43 | log2FoldChange PARP12 (ENSG00000059378.8): −2.758 | log2FoldChange PARP14 (ENSG00000173193.9): −9.512 | log2FoldChange PARP15 (ENSG00000173200.8): −3.778 | log2FoldChange PLA2G16 (ENSG00000176485.6): −2.531

Source: patent US20230203485A1, “METHODS FOR MODULATING MHC-I EXPRESSION AND IMMUNOTHERAPY USES THEREOF” (Dana-Farber Cancer Institute, Inc., priority 2020, published 2023)
